Measured values from patent publication US20230202989A1, “COMPOUNDS” (JANSSEN PHARMACEUTICA NV, priority 2020, published 2023).
Where two headings read alike, the source gives them in different places.

What was measured:
IL-1β = assay: PBMC assay: inhibition of IL-1β release after LPS stimulation (MSD); assay type: cell-based; conditions: PBMC, human PBMCs, 100 ng/ml LPS for 6 hrs, MSD, 96 well plates, read-out: IL1β IC50
Procedure, shortened: (§1)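 TNF (EC50) and IL-1β (IC50) were quantified by MSD in supernatants after 6 h stimulation with 100 ng/ml LPS. Thawed healthy-donor PBMCs, 7.5×10^4 per well, were exposed to 1:3 compound dilutions for 30 min beforehand at 37 °C.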

TNF = assay: PBMC assay: TNF cytokine levels after LPS stimulation (MSD); assay type: cell-based; conditions: PBMC, human PBMCs, 100 ng/ml LPS for 6 hrs
Procedure, shortened: as §1

IC50 (IL-1β; Homo sapiens, 6 h) [nM] | EC50 (TNF; Homo sapiens, 6 h) [nM] | melting point [°C] | Compound | IC50 (IL-1β) [nM] | EC50 (TNF) [nM]
293 | 15700 | – | CC(C)c1nn(CC(=O)Nc2ccc(=O)n(C)n2)c(=O)c2ccc(C(C)(F)F)cc12 [X-1065] | – | –
156 | 6780 | – | CC(C)c1nn(CC(=O)Nc2ccc(=O)n(C)c2)c(=O)c2ccc(C(C)(F)F)cc12 [X-1066] | – | –
175 | 13200 | – | CC(C)c1nn(CC(=O)Nc2ccc3nccn3c2)c(=O)c2ccc(C(C)(F)F)cc12 [X-1067] | – | –
2800 | > 20000 | – | CC(C)c1nn(CC(=O)N[C@H]2C[C@@](C)(O)C2)c(=O)c2ccc(C3CC3(F)F)cc12 (stereo partly drawn) [X-1068] | – | –
1140 | 14100 | – | CC(C)c1nn(CC(=O)Nc2ccc3nncn3c2)c(=O)c2ccc(C3CC3(F)F)cc12 (stereo not drawn) [X-1069] | – | –
406 | > 20000 | – | C[C@]1(O)C[C@@H](NC(=O)Cn2nc(C3CC3)c3cc(Cl)ccc3c2=O)C1 [X-1070] | – | –
398 | > 20000 | – | O=C(Cn1nc(C2CC2)c2cc(Cl)ccc2c1=O)Nc1ccc2nncn2c1 [X-1071] | – | –
1400 | > 20000 | – | Cn1nc(NC(=O)Cn2nc(C3CC3)c3cc(Cl)ccc3c2=O)ccc1=O [X-1072] | – | –
220 | > 20000 | – | CCc1ccc2c(=O)n(CC(=O)Nc3ccc4nncn4c3)nc(C(C)C)c2c1 [X-1073] | – | –
27 | 14800 | – | CC(C)c1nn(CC(=O)Nc2ccc3nncn3c2)c(=O)c2ccc(C3(F)CC3)cc12 [X-1074] | – | –
153 | > 20000 | – | Cc1nccc(NC(=O)Cn2nc(C(C)C)c3cc(C4(F)CC4)ccc3c2=O)c1F [X-1075] | – | –
33 | 19700 | – | CC(C)c1nn(CC(=O)Nc2ccc3nncn3c2)c(=O)c2ccc(C(C)(C)F)cc12 [X-1076] | – | –
144 | 16500 | – | CC(C)c1nn(CC(=O)Nc2ccc3nccn3c2)c(=O)c2ccc(C(C)(C)F)cc12 [X-1077] | – | –
1310 | > 20000 | – | CC(C)c1nn(CC(=O)Nc2ccc3nncn3c2)c(=O)c2ccc(C3CCC3)cc12 [X-1078] | – | –
9790 | > 20000 | – | CC(O)c1nn(CC(=O)Nc2ccn(C(C)C)n2)c(=O)c2ccc(Br)cc12 (stereo not drawn) [X-1079, 2-(6-bromo-4-(1-hydroxyethyl)-1-oxophthalazin-2(1H)-yl)-N-(1-isopropyl-1H-pyrazol-3-yl)acetamide] | – | –
502 | > 20000 | – | CC(O)c1nn(CC(=O)N[C@H]2C[C@@](C)(O)C2)c(=O)c2ccc(Br)cc12 (stereo partly drawn) [X-1080] | – | –
894 | > 20000 | – | CC(O)c1nn(CC(=O)Nc2ccncn2)c(=O)c2ccc(Br)cc12 (stereo not drawn) [X-1081] | – | –
346 | > 20000 | – | CC(O)c1nn(CC(=O)Nc2ccc3nncn3c2)c(=O)c2ccc(Br)cc12 (stereo not drawn) [X-1082] | – | –
143 | > 20000 | – | CC(C)c1nn(CC(=O)Nc2cn3cnnc3cn2)c(=O)c2ccc(C(C)(F)F)cc12 [X-1085] | – | –
137 | > 20000 | – | CC(C)c1ccc2c(=O)n(CC(=O)Nc3cn4cnnc4cn3)nc(C(C)C)c2c1 [X-1086] | – | –
196 | > 20000 | – | CO[C@]1(C)C[C@H](NC(=O)Cn2nc(C(C)C)c3cc(Br)ccc3c2=O)C1 [X-1088] | – | –

Second part, the molecule before the results:

Compound | IC50 (IL-1β; Homo sapiens, 6 h) [nM] | EC50 (TNF; Homo sapiens, 6 h) [nM] | melting point [°C] | IC50 (IL-1β) [nM] | EC50 (TNF) [nM]
CC(C)c1nn(CC(=O)Nc2ccc3nncn3n2)c(=O)c2ccc(C(F)(F)F)cc12 [Final Cpd X2, N-([1,2,4]triazolo[4,3-b]pyridazin-6-yl)-2-(4-isopropyl-1-oxo-6-(trifluoromethyl)phthalazin-2(1H)-yl)acetamide] | 30 | 5580 | 246.08 | – | –
CC(C)c1nn(CC(=O)Nc2ccc3nc[nH]c3n2)c(=O)c2ccc(C(F)(F)F)cc12 [Final Cpd X13] | 114 | > 20000 | 295.46 | – | –
CC(C)c1nn(CC(=O)Nc2ccc3nccn3n2)c(=O)c2ccc(C(F)(F)F)cc12 [Final Cpd X16] | 137 | > 20000 | 238.55 | – | –
CCN1CC[C@@H](O)[C@@H](NC(=O)Cn2nc(C3CC3)c3cc(C(F)(F)F)ccc3c2=O)C1 [Final Cpd X19] | 161 | > 20000 | 178.86 | – | –
CC(C)c1nn(CC(=O)Nc2ccc3cncn3c2)c(=O)c2ccc(C(F)(F)F)cc12 [Final Cpd X20] | 164 | 15500 | 222.09 | – | –
CC(C)c1nn(CC(=O)Nc2cc(F)[nH]c(=O)c2)c(=O)c2ccc(C(F)(F)F)cc12 [Final Cpd X22] | 170 | > 20000 | 232.18 | – | –
O=C(Cn1nc(C2CC2)c2cc(C(F)(F)F)ccc2c1=O)Nc1ccc2nncn2c1 [Final Cpd X23] | 172 | > 20000 | 294.49 | – | –
CC(C)c1nn(CC(=O)Nc2ccn3ncnc3c2)c(=O)c2ccc(C(F)(F)F)cc12 [Final Cpd X90] | 936 | > 20000 | 215.56 | – | –
CC(C)c1nn(CC(=O)Nc2ccc3nncn3c2)c(=O)c2ccc(C(F)(F)C(F)(F)F)cc12 [X-1052] | 1260 | > 20000 | – | – | –
CC(C)c1nn(CC(=O)Nc2ccnnc2)c(=O)c2ccc(C(F)(F)C(F)(F)F)cc12 [X-1053] | 3180 | > 20000 | – | – | –
COC(C)c1ccc2c(=O)n(CC(=O)Nc3ccc4nncn4c3)nc(C(C)C)c2c1 (stereo not drawn) [X-1054] | 539 | 18600 | – | – | –
COC(C)c1ccc2c(=O)n(CC(=O)N[C@H]3C[C@@](C)(O)C3)nc(C(C)C)c2c1 (stereo partly drawn) [X-1055] | 2130 | > 20000 | – | – | –
COC(C)c1ccc2c(=O)n(CC(=O)Nc3ccncn3)nc(C(C)C)c2c1 (stereo not drawn) [X-1056] | 1610 | 14000 | – | – | –
COC(C)(C)c1ccc2c(=O)n(CC(=O)Nc3ccc4nncn4c3)nc(C(C)C)c2c1 [X-1057] | 1910 | 17500 | – | – | –
COC(C)(C)c1ccc2c(=O)n(CC(=O)N[C@H]3C[C@@](C)(O)C3)nc(C(C)C)c2c1 [X-1058] | 4560 | > 20000 | – | – | –
COC(C)(C)c1ccc2c(=O)n(CC(=O)Nc3ccncn3)nc(C(C)C)c2c1 [X-1059] | 2420 | > 20000 | – | – | –
CC(C)c1nn(CC(=O)N[C@H]2C[C@@](C)(O)C2)c(=O)c2ccc(C#N)cc12 [X-1060] | 1740 | > 20000 | – | – | –
CC(C)c1nn(CC(=O)Nc2ccncn2)c(=O)c2ccc(C#N)cc12 [X-1061] | > 20000 | > 20000 | – | – | –
CC(C)c1nn(CC(=O)N[C@H]2C[C@@](C)(O)C2)c(=O)c2ccc(C(C)(F)F)cc12 [X-1062] | 90 | > 20000 | – | – | –
CC(C)c1nn(CC(=O)Nc2ccc3nncn3c2)c(=O)c2ccc(C(C)(F)F)cc12 [X-1063] | 16 | 1850 | – | – | –
CC(C)c1nn(CC(=O)Nc2ccnnc2)c(=O)c2ccc(C(C)(F)F)cc12 [X-1064] | 533 | 18900 | – | – | –
CC[C@]1(O[Si](C)(C)C(C)(C)C)C[C@@H](NC(=O)Cn2nc(C(C)C)c3cc(Br)ccc3c2=O)C1 [X-1089, 2-(6-bromo-4-isopropyl-1-oxophthalazin-2(1H)-yl)-N-((1r,3s)-3-((tert-butyldimethylsilyl)oxy)-3-ethylcyclobutyl)acetamide] | – | – | – | > 20000 | > 20000
CC[C@]1(O)C[C@@H](NC(=O)Cn2nc(C(C)C)c3cc(Br)ccc3c2=O)C1 [X-1090, 2-(6-bromo-4-isopropyl-1-oxophthalazin-2(1H)-yl)-N-((1r,3s)-3-ethyl-3-hydroxycyclobutyl)acetamide] | – | – | – | 122 | > 20000
